The results in this text go back to article PMC10808981, “Synthesis and structure–activity relationships of aryl fluorosulfate-based inhibitors as novel antitubercular agents” (Bioorganic & Medicinal Chemistry Letters, 2024).

Converted amounts (≈) assume the structure as drawn. Bounds are passed on as bounds.

For one data set, the system named is Mtb H37Rv. As to the kind of experiment: MIC determination in Mtb H37Rv, Microdilution Alamar Blue Assay (MABA). The class given is cell-based, Mycobacterium tuberculosis. To be noted: for MIC: Mtb H37Rv, MABA, 7 days. On the technique in general: Broth dilution looks for growth in wells or tubes with falling amounts of substance.
A short description of data set [1]: HEK293T cytotoxicity assay (Cell Titer-Glo). The class given is cell-based. The settings on record: human, HEK293T cells; HEK293T, 3 days. The protocol: HEK293T (ATCC) were grown in DMEM (Gibco Cat # 11965-092) supplemented with 10% heat-inactivated FBS, Pen Strep (Gibco) 1X in a 5% CO2 humidified atmosphere at 37◦C. Cells were washed once with DPBS 1X (Gibco), incubated for less than 5 minutes at room temperature in TrypLE solution (Gibco), washed once in propagation medium to remove trypsin, and counted with Trypan Blue. 5 µL of cell suspension ([…]) was dispensed into 1536-well plates containing serial 3-fold drug dilution ranging from 40 µM to 2 nM and incubated for 3 days in a 5% CO2 humidified atmosphere at 37 ◦C. Cell Titer-Glo® Luminescent Cell Viability Assay (Promega) reagent was diluted 1:1 with water and then 2 µL were added to plates. Luminescence was measured in a PHERAStar plate reader (BMG Labtech) and data normalized to negative control (DMSO) minus inhibitor (Puromycin 10 µM). Dose-response curves were fit using the Smart Fit function in Genedata Screener Analyzer (v16.0.8).

The nature of another data set: in vitro. The settings on record: human.
Setting [2] is: Mycobacterium tuberculosis, H37RV, 168 h.

The compound `O=S(=O)(F)Oc1ccc(OCc2ccc(-n3cncn3)c(F)c2F)cc1` [Compound 3f, 4-((2,3-difluoro-4-(1H-1,2,4-triazol-1-yl)benzyl)oxy)phenyl sulfurofluoridate] came in with an MIC in the data set with Mtb H37Rv (setting [2]) of 1.25 µM (≈ 0.482 µg/mL). For the same compound, the figures for the CC50 at 72 h (in data set [1]; in the data set “in vitro”) were 18.8 µM and 22.4 µM, respectively.
Consider `O=S(=O)(F)Oc1ccc(OCc2c(F)cc(-c3ncon3)cc2F)cc1` [Compound 19i, 4-((2,6-difluoro-4-(1,2,4-oxadiazol-3-yl)benzyl)oxy)phenyl sulfurofluoridate], for which the minimal inhibitory concentration (MIC) in the data set on Mtb H37Rv is 0.62 µM (≈ 0.24 µg/mL); against Mtb H37Rv (setting [2]) it was below 1 µM. Further, the CC50 at 3 days in data set [1] is above 40 µM. The compound further displayed a CC50 in “in vitro” above 40 µM.
In turn, `Cc1nc(C)n(-c2cc(F)c(COc3ccc(OS(=O)(=O)F)cc3)c(F)c2)n1` [Compound 20e, 4-((4-(3,5-dimethyl-1H-1,2,4-triazol-1-yl)-2,6-difluorobenzyl)oxy)phenyl sulfurofluoridate] displayed an MIC in the data set with Mtb H37Rv (setting [2]) of 0.23 µM (≈ 0.0951 µg/mL). Besides, the CC50 at 72 h in data set [1] was 14.3 µM; in the data set “in vitro” it was 8.1 µM.
The compound `O=S(=O)(F)Oc1ccc(OCc2cc(F)c(-n3cncn3)c(F)c2)cc1` [Compound 3 g, 4-((3,5-difluoro-4-(1H-1,2,4-triazol-1-yl)benzyl)oxy)phenyl sulfurofluoridate] displayed an MIC against Mtb H37Rv (setting [2]) of 10 µM (≈ 3.85 µg/mL). The same compound gave a CC50 at 72 h in data set [1] of 34.8 µM. In addition, the CC50 in “in vitro” was above 40 µM.
Compound `CC(C)(C)S(=O)(=O)Nc1ncn(-c2cc(F)c(COc3ccc(OS(=O)(=O)F)cc3)c(F)c2)n1` [Compound 21f, 4-((4-(3-((1,1-dimethylethyl)sulfonamido)-1H-1,2,4-triazol-1-yl)-2,6-difluorobenzyl)oxy)phenyl sulfurofluoridate] gave an MIC in the data set on Mtb H37Rv (setting [2]) of 2.5 µM (≈ 1.3 µg/mL). In addition, the CC50 at 3 days in data set [1] is above 40 µM. Further, the CC50 in the data set “in vitro” was above 40 µM.
As to `CCc1ncn(-c2cc(F)c(COc3ccc(OS(=O)(=O)F)cc3)c(F)c2)n1` [Compound 20b, 4-((4-(3-ethyl-1H-1,2,4-triazol-1-yl)-2,6-difluorobenzyl)oxy)phenyl sulfurofluoridate], in the data set on Mtb H37Rv (setting [2]), inhibition of growth (MIC) required 0.6 µM (≈ 0.248 µg/mL). Besides, the CC50 at 3 days in data set [1] was above 40 µM. Also, the CC50 at 72 h in the data set “in vitro” came to 5.8 µM.
`Cn1cnc(-c2cc(F)c(COc3ccc(OS(=O)(=O)F)cc3)c(F)c2)n1` [Compound 19b, 4-((2,6-difluoro-4-(1-methyl-1H-1,2,4-triazol-3-yl)benzyl)oxy)phenyl sulfurofluoridate] registered an MIC with Mtb H37Rv (setting [2]) of 1.25 µM (≈ 0.499 µg/mL). This compound registered a CC50 in “in vitro” above 40 µM.
Regarding `O=S(=O)(F)Oc1ccc(OCc2c(F)cc(-c3nnc[nH]3)cc2F)cc1` [Compound 19a, 4-((2,6-difluoro-4-(1H-1,2,4-triazol-3-yl)benzyl)oxy)phenylsulfurofluoridate], the values for the MIC against Mtb H37Rv and with Mtb H37Rv (setting [2]) were 0.9 µM (≈ 0.347 µg/mL) and below 1 µM, respectively. Further, the results for the CC50 at 72 h (in data set [1]; in the data set “in vitro”) were 14.7 µM and 19.3 µM, respectively.
`Cn1ccnc1-c1cc(F)c(COc2ccc(OS(=O)(=O)F)cc2)c(F)c1` [Compound 19e, 4-((2,6-difluoro-4-(1-methyl-1H-imidazol-2-yl)benzyl)oxy)phenyl sulfurofluoridate] came in with an MIC in the data set with Mtb H37Rv (setting [2]) of 1.25 µM (≈ 0.498 µg/mL). Also, the CC50 at 72 h in data set [1] came out at 26 µM; in the data set “in vitro”, 13.7 µM.
Turning to `O=S(=O)(F)Oc1ccc(OCc2c(F)cc(-c3ncc[nH]3)cc2F)cc1` [Compound 19d, 4-((2,6-difluoro-4-(1H-imidazol-2-yl)benzyl)oxy)phenyl sulfurofluoridate], it took 0.3 µM (≈ 0.115 µg/mL) to inhibit growth in the data set on Mtb H37Rv (setting [2]) (MIC). The CC50 at 3 days in data set [1] was above 40 µM. Besides, the CC50 at 72 h in the data set “in vitro” is 30.1 µM.
`O=S(=O)(F)Oc1ccc(OCc2ccc(-n3cncn3)c(F)c2)cc1` [Compound 3e, 4-((3-fluoro-4-(1H-1,2,4-triazol-1-yl)benzyl)oxy)phenyl sulfurofluoridate] showed a minimal inhibitory concentration (MIC) in the data set with Mtb H37Rv (setting [2]) of 2.5 µM (≈ 0.918 µg/mL). In addition, the CC50 at 72 h in data set [1] turned out to be 16.8 µM; in the data set “in vitro”, 17.6 µM.
Regarding `CCS(=O)(=O)Nc1ncn(-c2cc(F)c(COc3ccc(OS(=O)(=O)F)cc3)c(F)c2)n1` [Compound 21d, 4-((4-(3-(ethylsulfonamido)-1H-1,2,4-triazol-1-yl)-2,6-difluorobenzyl)oxy)phenyl sulfurofluoridate], it took 0.08 µM (≈ 0.0394 µg/mL) to inhibit growth against Mtb H37Rv (setting [2]) (MIC). In addition, the CC50 in “in vitro” is above 40 µM.
As to `O=S(=O)(F)Oc1ccc(OCc2c(F)cc(-n3ccnn3)cc2F)cc1` [Compound 3 l, 4-((2,6-difluoro-4-(1H-1,2,3-triazol-1-yl)benzyl)oxy)phenyl sulfurofluoridate], the MIC with Mtb H37Rv (setting [2]) turned out to be 0.16 µM (≈ 0.0617 µg/mL). Further, the CC50 at 72 h was 27.7 µM in data set [1] and 17 µM in the data set “in vitro”.
In the case of `CS(=O)(=O)Nc1ncn(-c2cc(F)c(COc3ccc(O)cc3)c(F)c2)n1` [Compound 21 g], in the data set with Mtb H37Rv, the “anti-TB activity against Mtb (in words)” value is “no activity” and the MIC is above 10 µM.
Turning to `CC(=O)Nc1ncn(-c2cc(F)c(COc3ccc(OS(=O)(=O)F)cc3)c(F)c2)n1` [Compound 21a, 4-((4-(3-acetamido-1H-1,2,4-triazol-1-yl)-2,6-difluorobenzyl)oxy)phenyl sulfurofluoridate], 0.15 µM (≈ 0.0664 µg/mL) was the least that counted as inhibitory in the data set on Mtb H37Rv (setting [2]) (MIC). Also, the CC50 at 3 days in data set [1] is above 40 µM. Further, the CC50 in the data set “in vitro” is above 40 µM.
The compound `CC(C)(C)c1ncn(-c2cc(F)c(COc3ccc(OS(=O)(=O)F)cc3)c(F)c2)n1` [Compound 20d, 4-((4-(3-(tert-butyl)-1H-1,2,4-triazol-1-yl)-2,6-difluorobenzyl)oxy)phenyl sulfurofluoridate] showed an MIC in the data set on Mtb H37Rv (setting [2]) of 1.2 µM (≈ 0.53 µg/mL). Besides, the CC50 at 72 h in data set [1] turned out to be 13.7 µM; in the data set “in vitro”, 6.9 µM.
In turn, `O=C(O)c1ncn(-c2cc(F)c(COc3ccc(OS(=O)(=O)F)cc3)c(F)c2)n1` [Compound 20j, 1-(3,5-difluoro-4-((4-((fluorosulfonyl)oxy)phenoxy)methyl)phenyl)-1H-1,2,4-triazole-3-carboxylic acid] came in with a minimum inhibitory concentration (MIC) against Mtb H37Rv (setting [2]) of 1.25 µM (≈ 0.537 µg/mL). Further, the CC50 at 3 days in data set [1] was above 40 µM. The same compound yielded a CC50 in the data set “in vitro” above 40 µM.
As to `O=S(=O)(F)Oc1ccc(OCc2c(F)cc(-c3cnoc3)cc2F)cc1` [Compound 19j, 4-((2,6-difluoro-4-(isoxazol-4-yl)benzyl)oxy)phenyl sulfurofluoridate], the MIC against Mtb H37Rv is 0.78 µM (≈ 0.301 µg/mL); against Mtb H37Rv (setting [2]), below 1 µM. The CC50 at 72 h stood at 23.8 µM in data set [1] and 6.99 µM in the data set “in vitro”.
The compound `O=S(=O)(F)Oc1ccc(OCc2c(F)cc(-c3nnn[nH]3)cc2F)cc1` [Compound 19 h, 4-((2,6-difluoro-4-(1H-tetrazol-5-yl)benzyl)oxy)phenyl sulfurofluoridate] gave a minimal inhibitory concentration (MIC) in the data set on Mtb H37Rv (setting [2]) of 5 µM (≈ 1.93 µg/mL). Besides, the CC50 at 3 days in data set [1] is above 40 µM. The compound also yielded a CC50 in “in vitro” above 40 µM.
With `CS(=O)(=O)c1ncn(-c2cc(F)c(COc3ccc(OS(=O)(=O)F)cc3)c(F)c2)n1` [Compound 20i, 4-((2,6-difluoro-4-(3-(methylsulfonyl)-1H-1,2,4-triazol-1-yl)benzyl)oxy)phenyl sulfurofluoridate], the MIC in the data set with Mtb H37Rv (setting [2]) is 0.4 µM (≈ 0.185 µg/mL). The values for the CC50 at 72 h (in data set [1]; in “in vitro”) were 17.2 µM and 9.3 µM, respectively.
For the compound `Cc1ncn(-c2cc(F)c(COc3ccc(OS(=O)(=O)F)cc3)c(F)c2)n1` [Compound 20a, 4-((2,6-difluoro-4-(3-methyl-1H-1,2,4-triazol-1-yl)benzyl)oxy)phenyl sulfurofluoridate], in the data set on Mtb H37Rv (setting [2]), the MIC is 0.3 µM (≈ 0.12 µg/mL). Moreover, the CC50 at 72 h in data set [1] was found to be 17.1 µM; in “in vitro”, 16.3 µM.
`NS(=O)(=O)c1ncn(-c2cc(F)c(COc3ccc(OS(=O)(=O)F)cc3)c(F)c2)n1` [Compound 20 l, 4-((2,6-difluoro-4-(3-sulfamoyl-1H-1,2,4-triazol-1-yl)benzyl)oxy)phenyl sulfurofluoridate] returned an MIC against Mtb H37Rv (setting [2]) of 0.47 µM (≈ 0.218 µg/mL). This compound also yielded a CC50 in the data set “in vitro” above 40 µM.
Turning to `NC(=O)c1ncn(-c2cc(F)c(COc3ccc(OS(=O)(=O)F)cc3)c(F)c2)n1` [Compound 20 k, 4-((4-(3-carbamoyl-1H-1,2,4-triazol-1-yl)-2,6-difluorobenzyl)oxy)phenyl sulfurofluoridate], it took 0.17 µM (≈ 0.0728 µg/mL) to inhibit growth against Mtb H37Rv (setting [2]) (MIC). The compound further yielded a CC50 at 3 days in data set [1] above 40 µM. In “in vitro”, this compound showed a CC50 above 40 µM.
`CN(c1ncn(-c2cc(F)c(COc3ccc(OS(=O)(=O)F)cc3)c(F)c2)n1)S(C)(=O)=O` [Compound 21c, 4-((2,6-difluoro-4-(3-(N-methylmethylsulfonamido)-1H-1,2,4-triazol-1-yl)benzyl)oxy)phenyl sulfurofluoridate] yielded an MIC in the data set with Mtb H37Rv (setting [2]) of 0.31 µM (≈ 0.153 µg/mL). Also, the CC50 at 72 h in “in vitro” worked out at 15.3 µM.
In the case of `N#Cc1cc(-n2cncn2)cc(F)c1COc1ccc(OS(=O)(=O)F)cc1` [Compound 3j, 4-((2-cyano-6-fluoro-4-(1H-1,2,4-triazol-1-yl)benzyl)oxy)phenyl sulfurofluoridate], the minimal inhibitory concentration (MIC) with Mtb H37Rv and against Mtb H37Rv (setting [2]) was 5 µM (≈ 1.96 µg/mL) throughout. Also, in data set [1], the CC50 at 3 days is above 40 µM. The CC50 in “in vitro” was above 40 µM.
Regarding `CC(C)S(=O)(=O)Nc1ncn(-c2cc(F)c(COc3ccc(OS(=O)(=O)F)cc3)c(F)c2)n1` [Compound 21e, 4-((2,6-difluoro-4-(3-((1-methylethyl)sulfonamido)-1H-1,2,4-triazol-1-yl)benzyl)oxy)phenyl sulfurofluoridate], 0.31 µM (≈ 0.157 µg/mL) was the least that counted as inhibitory against Mtb H37Rv (setting [2]) (MIC). In data set [1], the CC50 at 3 days was above 40 µM. The same compound yielded a CC50 in the data set “in vitro” above 40 µM.
`N#Cc1ncn(-c2cc(F)c(COc3ccc(OS(=O)(=O)F)cc3)c(F)c2)n1` [Compound 20 g, 4-((4-(3-cyano-1H-1,2,4-triazol-1-yl)-2,6-difluorobenzyl)oxy)phenyl sulfurofluoridate] showed an MIC against Mtb H37Rv (setting [2]) of 0.45 µM (≈ 0.185 µg/mL). The compound also showed a CC50 at 72 h in the data set “in vitro” of 10.3 µM.

A word on the MIC: it is the lowest concentration that inhibits growth of the organism. Read a high MIC as a less susceptible organism.
